Measured values as given in EP0361645B1, “Organic hydrazine derivatives for pharmaceutical use” (ROHM AND HAAS COMPANY, priority 1988, dated 1990).

Columns and labels:
[1] = molecular target: T1, ecdysone receptor (Drosophila melanogaster, UniProt P34021); assay: ^3H-ponasterone A binding to / displacement from Kr cell cytosolic receptor extracts; settings: for displacement of ^3H-ponasterone A from cytosolic receptor extracts: at saturating concentrations
T1 construct: endogenous in cells; host or cells: Drosophila Kr (Kc) cells, undiluted cytosolic extract
T1 sequence (P34021 1-878): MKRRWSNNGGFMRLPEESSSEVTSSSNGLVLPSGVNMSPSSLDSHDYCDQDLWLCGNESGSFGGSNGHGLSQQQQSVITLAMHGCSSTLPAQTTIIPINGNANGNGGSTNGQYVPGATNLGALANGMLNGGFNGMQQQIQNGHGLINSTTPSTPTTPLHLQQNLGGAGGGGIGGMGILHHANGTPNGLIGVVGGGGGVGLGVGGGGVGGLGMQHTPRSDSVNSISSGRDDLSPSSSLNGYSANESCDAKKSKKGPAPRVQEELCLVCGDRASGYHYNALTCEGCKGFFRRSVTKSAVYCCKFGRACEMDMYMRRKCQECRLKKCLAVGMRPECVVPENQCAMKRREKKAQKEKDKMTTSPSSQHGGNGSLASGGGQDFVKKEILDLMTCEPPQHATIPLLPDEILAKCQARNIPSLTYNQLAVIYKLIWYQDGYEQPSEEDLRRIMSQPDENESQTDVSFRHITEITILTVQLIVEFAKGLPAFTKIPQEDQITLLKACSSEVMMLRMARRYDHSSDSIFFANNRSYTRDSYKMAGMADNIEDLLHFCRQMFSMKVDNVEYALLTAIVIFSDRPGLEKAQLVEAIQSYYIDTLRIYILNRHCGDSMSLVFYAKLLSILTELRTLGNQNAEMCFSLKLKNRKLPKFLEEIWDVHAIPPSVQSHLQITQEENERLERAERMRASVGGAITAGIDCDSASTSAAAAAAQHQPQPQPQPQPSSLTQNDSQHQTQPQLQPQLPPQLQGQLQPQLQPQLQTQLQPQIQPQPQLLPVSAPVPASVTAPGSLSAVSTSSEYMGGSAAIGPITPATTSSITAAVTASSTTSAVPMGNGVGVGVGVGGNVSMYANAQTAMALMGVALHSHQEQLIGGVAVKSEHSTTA
T1 sequence (P20153 1-508 partner): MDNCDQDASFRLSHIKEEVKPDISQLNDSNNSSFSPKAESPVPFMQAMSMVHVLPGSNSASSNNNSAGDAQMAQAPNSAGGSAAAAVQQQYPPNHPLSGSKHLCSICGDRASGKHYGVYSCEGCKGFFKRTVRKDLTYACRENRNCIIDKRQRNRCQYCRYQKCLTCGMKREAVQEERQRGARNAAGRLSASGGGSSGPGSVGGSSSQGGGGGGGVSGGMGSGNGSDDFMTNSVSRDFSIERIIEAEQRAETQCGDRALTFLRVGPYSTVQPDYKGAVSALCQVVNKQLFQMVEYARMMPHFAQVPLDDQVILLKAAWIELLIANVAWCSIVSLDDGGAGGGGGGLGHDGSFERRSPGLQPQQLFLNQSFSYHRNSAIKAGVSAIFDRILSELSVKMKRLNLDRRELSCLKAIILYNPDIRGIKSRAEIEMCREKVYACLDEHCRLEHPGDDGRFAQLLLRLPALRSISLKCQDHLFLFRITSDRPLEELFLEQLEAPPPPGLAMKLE
Experimental: The invention will now be further described by way of exemplification and by reference to the drawings in which; • Figure 1. Both 20-hydroxyecdysone and Example No. 3 induce process elaboration (A) and inhibition of cell proliferation (B) in Kr cells in a dose-dependent manner. Initial cell density was 2 X 10^6 cells/ml; after incubation of 1 ml aliquots of the cells with the compound for 48 hours the cells were triturated gently and the percentage of cells responding (with processes longer than approximately 17 um, see Cherbas et al. 189 Wilhelm Roux's Arch. 1 (1980)) and total cell density was determined by hemocytom- eter counting, relative to ethanol (1 ul)-treated controls. Determinations were in triplicate for each dose. […] Induction of acetylcholinesterase by varying concentrations of 20-hydroxyecdysone and Example No. 3. Kr cells at an initial density of 3 X 10^6 cells/ml (10 ml per sample) were incubated with the agonist for three days. After harvesting, by centrifugation at 3000 X g, the cell pellets were washed with Robb's Drosophila saline (18, 2 X 5 ml) at 4 ° C, then lysed by sonication in 1 ml of phosphate buffer (pH 7.4, I = 0.1 M) containing 0.5 M NaCI, 0.25 M EDTA and 0.5% TRITON? X-100. See Cherbas, 197 Science 275 (1977). Triton is a registered trademark of Rohm and Haas Company for a alkylaryl polyoxyethylene glycol surfactant. After centrifugation at 16,000 X g, the supernatants were assayed for acetylcholinesterase activity by an adaptation of the method of Ellman et al., 7 Biochem. Pharmacol. 88 (1961), by subtracting out any 412 nm absorbance observed in incubations in the presence of 2 X 10-5 eserine sulfate. Thus reaction mixtures contained 50 ul of enzyme extract, 20 ul eserine (blank tubes only) and 1.0 ml of 0.5 mM acetylthiocholine, 0.3 mM dithiobisnitrobenzoic acid in phosphate buffer (pH 7.4, I = 0.1 M). Incubations were at 25 ° C for two hours; reactions in active tubes were terminated by addition of eserine. Absorbance at 412 nm was then measured. Protein concentration in extracts was measured by the Biorad method. […] Scatchard plot of ^3H-ponasterone A binding to Kr cell cytosolic receptor extracts in the presence of differing concentrations of Example No. 3. Cytosolic extract preparation and ecdysteroid receptor assays were essentially as described in Sage, 111 Meth. in Enzymol. 458 (1985). Example No. 3 was added in 1 ul DMSO to 50 ul of radioligand in 10 mM Tris buffer (pH 7.2) and 50 ul of undiluted cytosol extract. After incubation overnight at 0.5 ° C, bound label was separated from free by addition of 300 ul 1% HCI-washed charcoal (Sigma) and 0.1% Dextran T70 (Pharmacia) in Tris buffer, centrifugation (13,000 X g, 3 min, 4 ° C) and liquid scintillation counting of a 300 ul aliquot of the supernatant in 15 ml Hydrofluor (National Diagnostics). Points are means of duplicate determinations. […] Relative ability of 20 hydroxyecdysone and Example No. 3 to displace ^3H-ponasterone A from cytosolic receptor extracts. Conditions were as in Figure 3 except that only 0.5 nM ponasterone A was used. • Points are means of duplicate determinations. For 20-hydroxyecdysone EC50 = 0.1 uM while for Example No. 3 EC50 = 3.0 uM. Control binding = 10 femtomoles ^3H-ponasterone A bound per mg cytosol protein. • Figure 4. Effects of 10 ppm Example No. 3 administered in artificial diet to newly ecdysed fourth instar (L4) M. sexta, monitoring (A)immunoreactive hemolymph ecdysteroid titers and (B)weight gain. Ecdysteroid titers were measured by a radioimmunoassay adapted from Warren et al., 40 Experientia 393 (1984) with Protein A-Staph. aureus suspension (Sigma) used as the reagent to separate bound from free ligand. The antiecdysone antiserum was formed by reaction of 20-hydroxyecdysone with carboxymethox- yamine resulting in the corresponding ecdysteroid 6-oxime acid. […] All samples were diluted appropriately in borate buffer pH 8.0 and assayed in duplicate. […]

[2] = test system: Kr cells; assay: Process elaboration and inhibition of cell proliferation in Kr cells; assay type: cell-based, Drosophila; settings: at saturating concentrations
Experimental: The invention will now be further described by way of exemplification and by reference to the drawings in which; • Figure 1. Both 20-hydroxyecdysone and Example No. 3 induce process elaboration (A) and inhibition of cell proliferation (B) in Kr cells in a dose-dependent manner. Initial cell density was 2 X 10^6 cells/ml; after incubation of 1 ml aliquots of the cells with the compound for 48 hours the cells were triturated gently and the percentage of cells responding (with processes longer than approximately 17 um, see Cherbas et al. 189 Wilhelm Roux's Arch. 1 (1980)) and total cell density was determined by hemocytom- eter counting, relative to ethanol (1 ul)-treated controls. Determinations were in triplicate for each dose. […] Induction of acetylcholinesterase by varying concentrations of 20-hydroxyecdysone and Example No. 3. Kr cells at an initial density of 3 X 10^6 cells/ml (10 ml per sample) were incubated with the agonist for three days. After harvesting, by centrifugation at 3000 X g, the cell pellets were washed with Robb's Drosophila saline (18, 2 X 5 ml) at 4 ° C, then lysed by sonication in 1 ml of phosphate buffer (pH 7.4, I = 0.1 M) containing 0.5 M NaCI, 0.25 M EDTA and 0.5% TRITON? X-100. See Cherbas, 197 Science 275 (1977). Triton is a registered trademark of Rohm and Haas Company for a alkylaryl polyoxyethylene glycol surfactant. After centrifugation at 16,000 X g, the supernatants were assayed for acetylcholinesterase activity by an adaptation of the method of Ellman et al., 7 Biochem. Pharmacol. 88 (1961), by subtracting out any 412 nm absorbance observed in incubations in the presence of 2 X 10-5 eserine sulfate. Thus reaction mixtures contained 50 ul of enzyme extract, 20 ul eserine (blank tubes only) and 1.0 ml of 0.5 mM acetylthiocholine, 0.3 mM dithiobisnitrobenzoic acid in phosphate buffer (pH 7.4, I = 0.1 M). Incubations were at 25 ° C for two hours; reactions in active tubes were terminated by addition of eserine. Absorbance at 412 nm was then measured. Protein concentration in extracts was measured by the Biorad method. […] Scatchard plot of ^3H-ponasterone A binding to Kr cell cytosolic receptor extracts in the presence of differing concentrations of Example No. 3. Cytosolic extract preparation and ecdysteroid receptor assays were essentially as described in Sage, 111 Meth. in Enzymol. 458 (1985). Example No. 3 was added in 1 ul DMSO to 50 ul of radioligand in 10 mM Tris buffer (pH 7.2) and 50 ul of undiluted cytosol extract. […] Ecdysteroid titers were measured by a radioimmunoassay adapted from Warren et al., 40 Experientia 393 (1984) with Protein A-Staph. aureus suspension (Sigma) used as the reagent to separate bound from free ligand. […]

[3] = test system: antiecdysone antiserum; assay: Binding by antiecdysone antiserum (radioimmunoassay); settings: ^3H-alpha ecdysone as the radioligand
Experimental: The invention will now be further described by way of exemplification and by reference to the drawings in which; • Figure 1. Both 20-hydroxyecdysone and Example No. 3 induce process elaboration (A) and inhibition of cell proliferation (B) in Kr cells in a dose-dependent manner. Initial cell density was 2 X 10^6 cells/ml; after incubation of 1 ml aliquots of the cells with the compound for 48 hours the cells were triturated gently and the percentage of cells responding (with processes longer than approximately 17 um, see Cherbas et al. 189 Wilhelm Roux's Arch. 1 (1980)) and total cell density was determined by hemocytom- eter counting, relative to ethanol (1 ul)-treated controls. Determinations were in triplicate for each dose. […] Induction of acetylcholinesterase by varying concentrations of 20-hydroxyecdysone and Example No. 3. Kr cells at an initial density of 3 X 10^6 cells/ml (10 ml per sample) were incubated with the agonist for three days. After harvesting, by centrifugation at 3000 X g, the cell pellets were washed with Robb's Drosophila saline (18, 2 X 5 ml) at 4 ° C, then lysed by sonication in 1 ml of phosphate buffer (pH 7.4, I = 0.1 M) containing 0.5 M NaCI, 0.25 M EDTA and 0.5% TRITON? X-100. See Cherbas, 197 Science 275 (1977). Triton is a registered trademark of Rohm and Haas Company for a alkylaryl polyoxyethylene glycol surfactant. After centrifugation at 16,000 X g, the supernatants were assayed for acetylcholinesterase activity by an adaptation of the method of Ellman et al., 7 Biochem. Pharmacol. 88 (1961), by subtracting out any 412 nm absorbance observed in incubations in the presence of 2 X 10-5 eserine sulfate. […] Absorbance at 412 nm was then measured. Protein concentration in extracts was measured by the Biorad method. […] Ecdysteroid titers were measured by a radioimmunoassay adapted from Warren et al., 40 Experientia 393 (1984) with Protein A-Staph. aureus suspension (Sigma) used as the reagent to separate bound from free ligand. […]

Compound | ecdysone-like responses in whole Kr cells [2] | displacement of ^3H-ponasterone A from cytosolic receptor extracts [1] | other results
CC(C)CC[C@@H](O)[C@](C)(O)[C@H]1CC[C@@]2(O)C3=CC(=O)[C@@H]4C[C@@H](O)[C@@H](O)C[C@]4(C)[C@H]3CC[C@]12C [^3H-ponasterone A, ponasterone A] |  |  | Bmax ([1]; Figure 3A legend, in the absence of Example No. 3): 0.79 nm; Kd ([1]; Scatchard plot, in the absence of Example No. 3): 0.29 nM; Bmax ([1]; text b415, in the absence of Example No. 3): 0.71 nM
O=C(NC(=O)c1c(F)cccc1F)Nc1ccc(Cl)cc1 [1-(4-chloro-phenyl)-3-(2,6-difluorobenzoyl)urea] | failed to produce ecdysone-like responses | did not displace | 
C[C@H]([C@H](O)CCC(C)(C)O)[C@H]1CC[C@@]2(O)C3=CC(=O)[C@@H]4C[C@@H](O)[C@@H](O)C[C@]4(C)[C@H]3CC[C@]12C [alpha-ecdysone, reference compound] |  |  | fold greater affinity than 20-hydroxyecdysone [3]: 2.7 fold
O=C(NC(=O)c1c(F)cccc1F)Nc1cc(Cl)c(Oc2ncc(C(F)(F)F)cc2Cl)c(Cl)c1 [1-(3,5-dichloro-4-(3-chloro-5-trifluoromethyl-2-pyridyloxy)phenyl)-3-(2,6-difluorobenzoyl)urea] | failed to produce ecdysone-like responses | did not displace | 
